The results in this text go back to patent US20260034125A1, “N-PHENYL-1-(PHENYLSULFONYL)PIPERIDIN-4-AMINE DERIVATIVES AS CCR6 INHIBITORS” (priority 2023, published 2026).

SMILES strings stand for the structures.

Common to all, as to assay type: cell-based
The target in experiment [1] is T1, human CCR6 (Homo sapiens, UniProt P51684).
T1 sequence (P51684 1-374): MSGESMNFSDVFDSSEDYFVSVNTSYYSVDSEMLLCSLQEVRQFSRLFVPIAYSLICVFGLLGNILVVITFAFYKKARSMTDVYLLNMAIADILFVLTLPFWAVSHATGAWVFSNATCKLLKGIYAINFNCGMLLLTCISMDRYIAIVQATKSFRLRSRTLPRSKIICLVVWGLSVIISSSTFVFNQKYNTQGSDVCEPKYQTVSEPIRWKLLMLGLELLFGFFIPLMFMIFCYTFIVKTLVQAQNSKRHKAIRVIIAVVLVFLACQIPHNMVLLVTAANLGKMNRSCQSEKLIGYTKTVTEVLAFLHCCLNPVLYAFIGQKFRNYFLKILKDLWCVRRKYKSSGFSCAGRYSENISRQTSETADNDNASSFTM
The experiment can be described thus: CHO-K1 CCR6 chemotaxis assay towards CCL20. As to conditions: relative -LogIC50; CHO-K1 cells overexpressing human CCR6, 100 ng/ml CCL20, Transwell, 4 h. The source says:
Cells overexpressing human CCR6 were used in the chemotaxis assay (DiscoverX, CAMP Hunter™ CHO-K1 CCR6 Gi Cell Line). Growth medium of these cells consisted of DMEM/F12, non-essential Amino acids (1×NEAA, Gibco 11140050), 10% FBS and 1× pen/strep (Gibco 15140). For the chemotaxis assay, Corning Transwell plates were used with a pore size of 8 μm (Corning 351164). Cells were harvested using trypsin and diluted to 4*10^6 cells/ml in chemotaxis medium (DMEM, 0.25% BSA, pen/strep). Compounds were four-fold serially diluted in DMSO. Further dilutions were made in chemotaxis medium. Cells were incubated with test compounds for 30 min at 37° C. prior to initiation of the assay (2*10^6 cells/ml). Final DMSO concentration in the assay was 0.2%. Wells of the Transwell plates were filled with 200 μl chemotaxis medium containing 100 ng/ml CCL20 (R&D systems 360-MP). 50 μl of the cell/compound suspension was added to the inserts of the Transwell plates (100,000 cells/insert). The Transwell plates were placed in an incubator at 37° C., 5% CO2 for 4 h. After 4 h, the number of migrated cells was quantified using CellTiter Glo (Promega). Percentage inhibition values were calculated based on the low and high signal obtained with 0.2% DMSO in chemotaxis medium without and with CCL20, respectively. The relative-LogIC50 was determined with GraphPad Prism 9 using a four-parameter dose-response model.

Experiment [2] concerns the target T1, human CCR6. As to the kind of experiment: Human CCR6-Cre reporter assay. Also noted: The second construct contained the open reading frame of human CCR6 in the pUNO1 backbone; host or cells: 293 FT cells. As to conditions: relative -LogIC50; transfected 293 FT cells, 6 μM Forskolin, 6 nM CCL20, luciferase readout, 5h. On the procedure:
293 FT cells were transfected with 2 constructs using TransIT-293 (Mirus). The first construct (pGL4.29, Promega) expressed the luciferase reporter gene luc2P in response to the binding of cAMP-induced CREB to the CRE element in its promoter. The second construct contained the open reading frame of human CCR6 in the pUNO1 backbone under the control of an enhanced CMV promoter (In VivoGen). 48h after transfection, cells were harvested and diluted to 750,000 cells/ml in culture medium (DMEM, 10% FBS, 1× pen/strep (Gibco 15140)). Compounds were 2.5-fold serially diluted in DMSO. Further dilutions were made in assay medium (DMEM, 10% FBS, 1× pen/strep, 6 μM Forskolin, 6 nM CCL20). 4 μl of the compound solution was added to a white MW384 plate, followed by 20 μl of the cell suspension. Final DMSO concentration in the assay was 0.1%. The MW384 plate was placed in an incubator at 37° C., 5% CO2 for 5h. Luciferase activity was determined by addition of 24 μl of a 2.5× diluted BriteLite luciferase solution (Perkin Elmer), followed by luminescence measurement using a VICTOR Plate reader (Perkin Elmer). […] The relative-LogIC50 was determined with GraphPad Prism 9 using a four-parameter dose-response model.

The subject of a further experiment is Human CD4+ T cells. As to the kind of experiment: CD4+ T cell chemotaxis assay towards CCL20. As to conditions: relative -LogIC50, 150 ng/ml CCL20, Transwell, 3 h. From the text:
Human CD4+ T cells were isolated from buffy coats of healthy donors using a CD4+ T Cell Isolation Kit (Miltenyi Biotec130-096-533). Isolated T cells were stimulated overnight with anti-CD3 and anti-CD28 antibodies (Biolegend 300314/302934) in growth medium (RPMI1640, 10% heat-inactivated FBS, 1× pen/strep (Gibco 15140)). For the chemotaxis assay, Corning Transwell plates were used with a pore size of 5 μm (Corning 3388). T cells were counted and diluted to 6*10^6 cells/ml in chemotaxis medium (RPMI1640, 1% BSA, pen/strep). Compounds were four-fold serially diluted in DMSO. Further dilutions were made in chemotaxis medium. Cells were incubated with test compounds for 30 min at 37° C. prior to initiation of the assay (3*10^6 cells/ml). Final DMSO concentration in the assay was 0.2%. Wells of the Transwell plates were filled with 200 μl chemotaxis medium containing 150 ng/ml CCL20 (R&D systems 360-MP). 50 μl of the cell/compound suspension was added to the inserts of the Transwell plates (150,000 cells/insert). The Transwell plates were placed in an incubator at 37° C., 5% CO2 for 3 h. After 3 h, the number of migrated cells was quantified using CellTiter Glo (Promega). Percentage inhibition values were calculated based on the low and high signal obtained with 0.2% DMSO in chemotaxis medium without and with CCL20, respectively. The relative −LogIC50 was determined with GraphPad Prism 9 using a four-parameter dose-response model.

In general, IC50 refers to the midpoint of a concentration-inhibition curve. The low end stands for inhibition by little substance, the high end for a need for much substance. As for `Cc1cnc2ccc(-c3ccc(S(=O)(=O)N4CCC(Nc5ccc(C6(C(F)(F)F)CC6)cc5)CC4)cc3)cn12` [Example 3, 1-(4-{3-methylimidazo[1,2-a]pyridin-6-yl}benzenesulfonyl)-N-{4-[1-(trifluoromethyl)cyclopropyl]phenyl}piperidin-4-amine], the IC50 against human CCR6 [1] was 63.1 nM; at human CCR6 [2] it was 79.4 nM.

Consider `CC(C)c1cnc2ccc(-c3ccc(S(=O)(=O)[C@H]4CC[C@H](Nc5ccc(C6(C(F)(F)F)CC6)cc5)CC4)cc3)cn12` [Example 20, N-[trans-4-{4-[3-(propan-2-yl)imidazo[1,2-a]pyridin-6-yl]benzenesulfonyl}cyclohexyl]-4-[1-(trifluoromethyl)cyclopropyl]aniline], for which the values for the IC50 at human CCR6 [1] and against human CCR6 [2] were 3.98 nM and 100 nM, respectively.

For `N#Cc1c[nH]c2ccc(-c3ccc(S(=O)(=O)[C@H]4CC[C@H](Nc5ccc(C6(C(F)(F)F)CC6)cc5)CC4)cc3)cc12` [Example 16, 5-(4-{[trans-4-({4-[1-(trifluoromethyl)cyclopropyl]phenyl}Amino)cyclohexyl]sulfonyl}phenyl)-1H-indole-3-carbonitrile], the figures for the IC50 on human CCR6 [1] and at human CCR6 [2] were 5.01 nM and 20 nM, respectively. In the case of `N#CC1(c2ccc(NC3CCN(S(=O)(=O)c4ccc(-c5ccc6n[nH]c(=O)n6c5)cc4)CC3)nc2)CC1` [Example 35, 1-(6-{[1-(4-{3-oxo-2H,3H-[1,2,4]triazolo[4,3-a]pyridin-6-yl}benzenesulfonyl)piperidin-4-yl]amino}pyridin-3-yl)cyclopropane-1-carbonitrile], the figures for the IC50 in the experiment with Human CD4+ T cells and on human CCR6 [2] were 1580 nM and 398 nM, respectively.

On to `Cc1c[nH]c2ncc(-c3ccc(S(=O)(=O)[C@H]4CC[C@H](Nc5ccc(C6(C(F)(F)F)CC6)cc5)CC4)cc3)cc12` [Example 21, N-[(trans)-4-(4-{3-methyl-1H-pyrrolo[2,3-b]pyridin-5-yl}benzenesulfonyl)cyclohexyl]-4-[1-(trifluoromethyl)cyclopropyl]aniline], for which the IC50 was 1.58 nM in the experiment with Human CD4+ T cells and 63.1 nM against human CCR6 [2]. As for `O=c1[nH]nc2ccc(-c3ccc(S(=O)(=O)N4CCC(Nc5ccc(C6(C(F)(F)F)CC6)cc5)CC4)cc3)cn12` [Example 43, 6-(4-{[4-({4-[1-(trifluoromethyl)cyclopropyl]phenyl}amino)piperidin-1-yl]sulfonyl}phenyl)-2H,3H-[1,2,4]triazolo[4,3-a]pyridin-3-one], the IC50 in the experiment with Human CD4+ T cells was 12.6 nM; against human CCR6 [2], 100 nM. Take `CC(C)c1nnc2ccc(-c3ccc(S(=O)(=O)N4CCC(Nc5ccc(C6(C(F)(F)F)CC6)cn5)CC4)cc3)cn12` [Example 36, N-(1-{4-[3-(propan-2-yl)-[1,2,4]triazolo[4,3-a]pyridin-6-yl]benzenesulfonyl}piperidin-4-yl)-5-[1-(trifluoromethyl)cyclopropyl]pyridin-2-amine]: the figures for the IC50 with Human CD4+ T cells and at human CCR6 [2] were 3.16 nM and 31.6 nM, respectively. For the molecule `Cc1nnc2ccc(-c3ccc(S(=O)(=O)N4CCC(Nc5ccc(C6(C(F)(F)F)CC6)cn5)CC4)cc3)cn12` [Example 47, N-[1-(4-{3-methyl-[1,2,4]triazolo[4,3-a]pyridin-6-yl}benzenesulfonyl)piperidin-4-yl]-5-[1-(trifluoromethyl)cyclopropyl]pyridin-2-amine], half-maximal inhibition in the experiment with Human CD4+ T cells (IC50) required 15.8 nM. With `CC(C)c1nnc2cnc(-c3ccc(S(=O)(=O)N4CCC(Nc5ccc(C6(C(F)(F)F)CC6)cc5)CC4)cc3)cn12` [Example 41, 1-{4-[3-(propan-2-yl)-[1,2,4]triazolo[4,3-a]pyrazin-6-yl]benzenesulfonyl}-N-{4-[1-(trifluoromethyl)cyclopropyl]phenyl}piperidin-4-amine], the IC50 in the experiment with Human CD4+ T cells is 3.98 nM; against human CCR6 [2], 63.1 nM.

On to `O=S(=O)(c1ccc(-c2ccc3nccn3c2)cc1)N1CCC(Nc2ccc(C3(C(F)(F)F)CC3)cn2)CC1` [Example 37, N-[1-(4-{imidazo[1,2-a]pyridin-6-yl}benzenesulfonyl)piperidin-4-yl]-5-[1-(trifluoromethyl)cyclopropyl]pyridin-2-amine], for which the IC50 is 5.01 nM in the experiment with Human CD4+ T cells and 100 nM against human CCR6 [2]. For `Cc1n[nH]c2ncc(-c3ccc(S(=O)(=O)[C@H]4CC[C@H](Nc5ccc(C6(C(F)(F)F)CC6)cc5)CC4)cc3)cc12` [Example 22, N-[(trans)-4-(4-{3-methyl-1H-pyrazolo[3,4-b]pyridin-5-yl}benzenesulfonyl)cyclohexyl]-4-[1-(trifluoromethyl)cyclopropyl]aniline] the same measures were 2.51 nM and 100 nM. For `Cc1cc(-c2ccc(S(=O)(=O)N3CCC(Nc4ccc(C5(C#N)CC5)cn4)CC3)cc2)cn2c(C(C)C)nnc12` [Example 32, 1-{6-[(1-{4-[8-methyl-3-(propan-2-yl)-[1,2,4]triazolo[4,3-a]pyridin-6-yl]benzenesulfonyl}piperidin-4-yl)amino]pyridin-3-yl}cyclopropane-1-carbonitrile] the same measures were 126 nM and 200 nM.

On to `CC(C)c1nnc2ccc(-c3ccc(S(=O)(=O)[C@H]4CC[C@H](Nc5ccc(C6(C#N)CC6)cn5)CC4)cc3)cn12` [Example 30, 1-(6-{[(trans)-4-{4-[3-(propan-2-yl)-[1,2,4]triazolo[4,3-a]pyridin-6-yl]benzenesulfonyl}cyclohexyl]amino}pyridin-3-yl)cyclopropane-1-carbonitrile], for which the IC50 with Human CD4+ T cells was 251 nM; at human CCR6 [2], 200 nM. For `CC(C)c1nnc2ccc(-c3ccc(S(=O)(=O)N4CCC(Nc5ccc(C6(C#N)CC6)cn5)CC4)cc3)cn12` [Example 31, 1-{6-[(1-{4-[3-(propan-2-yl)-[1,2,4]triazolo[4,3-a]pyridin-6-yl]benzenesulfonyl}piperidin-4-yl)amino]pyridin-3-yl}cyclopropane-1-carbonitrile] the same measures were 79.4 nM and 200 nM.

Regarding `Cc1nnc2ccc(-c3ccc(S(=O)(=O)N4CCC(Nc5ccc(C6(C(F)(F)F)CC6)cc5)CC4)cc3)cn12` [Example 42, 1-(4-{3-methyl-[1,2,4]triazolo[4,3-a]pyridin-6-yl}benzenesulfonyl)-N-{4-[1-(trifluoromethyl)cyclopropyl]phenyl}piperidin-4-amine], the IC50 is 6.31 nM with Human CD4+ T cells and 126 nM on human CCR6 [2].
